Active and inactive are the calls of the source. No cut-off for these calls is given here.
Key:
Mus musculus = experiment: Reduction in circulating free fatty acids in food-deprived C57/B16 mouse at 100 mg/kg, ip measured after 30 mins by NEFA assay; type: functional, organism-based
Rattus norvegicus = experiment: Reduction in circulating free fatty acids in food-deprived Sprague-Dawley rat at 1 to 100 mg/kg, po measured after 10 to 240 mins post dose by NEFA assay; type: functional, organism-based
Adipocyte = experiment: Inhibition of lipolysis in Sprague-Dawley rat epididymal adipocytes pre-incubated for 10 mins before theophylline addition followed by further incubation for 3 hrs by microplate reader based assay; type: functional, cell-based

IC50 (Adipocyte)	SMILES	inhibition (Mus musculus)	inhibition (Rattus norvegicus)
	Oc1ccc2ncn(-c3ccccc3C(F)(F)F)c2n1	Active	
0.234 µM	Oc1ccc2ncn(-c3ccccc3Cl)c2n1	Active	Active
	O=C(O)c1cccnc1	Active	

— ChEMBL document CHEMBL3714758, “3H-imidazo[4,5-b]pyridin-5-ol derivatives useful in the treatment of GPR81 receptor disorders” (2013)
